Data: US9974785B2, “Aromatic heterocyclic derivatives and pharmaceutical applications thereof” (SUNSHINE LAKE PHARMA CO., LTD., priority 2014, dated 2018)

Experiments:
human 5-HT6 receptor = human 5-HT6 receptor (Homo sapiens (Human), UniProt P50406); experiment: Radioligand binding assay, human 5-HT6 receptor expressed in CHO cell; details: 2 nM [3H]LSD
Protocol: Example A: The Binding Affinities of the Compounds of this Invention to Human 5-HT6 Receptor Expressed in CHO Cell were Evaluated by Radioligand Binding Assay as Follows
32 μg membrane proteins of CHO cell expressing human 5-HT6 receptor, 2 nM of radioactive marker [3H]LSD, a compound of the present invention having different test concentrations, 100 μM 5-HT (5-HT was used to eliminate nonspecific binding sites) and a buffer solution were mixed uniformly. Then the resulting mixture was incubated at 37° C. for 120 min, in which the buffer solution comprised 50 mM Tris-HCl (pH 7.4), 10 mM MgCl2, 0.5 mM EDTA, 10 μM pargyline and 20 mg/L protease inhibitor.
After incubation, the resulting mixture was filtered by a fiberglass filter (GF/B, Packard) in vacuo, and the filter membrane of the fiberglass filter was preimpregnated with 0.3% PEI before the filtering and washed with 50 mM of Tris-HCl for several times after the filtering. After the filter membrane was dried, and the radioactivity of filter membrane was determined by liquid scintillation counting by using a scintillometer (Topcount, Packard). The reference standard was 5-HT, and competitive inhibition curves were plotted based on several inhibition ratios and the corresponding compound concentrations. IC50 values were calculated by non-linear regression analysis using Hill equation curves, and the Ki values were calculated from IC50 by using the ChengPrusoff equation.

[1] = Pharmacokinetic evaluation after intravenous or gavage administration to dogs; assay type: in vivo, Beagle dogs; details: for AUC(0-inf) / AUC(0-t) / Cmax / MRT inf / Tmax / clearance / half-life / Vd: beagle, dog, plasma; for Vd: read-out: Vss
Protocol: Example B: Pharmacokinetic Evaluation after Administering a Certain Amount of the Compounds of the Invention Intravenously or by Gavage to Dogs and Monkeys
In vivo pharmacokinetic assays in dogs and cynomolgus monkeys of the compounds disclosed herein were performed by the following steps.
Experiments were divided into two groups, one group was administered through intravenous drug delivery, and the other group was administered by gavage. The compounds disclosed herein were administered in form of a saline solution containing 5% DMSO, 5% Kolliphor HS 15, 2% (2% HCl) and 88% Saline, or the solution containing 10% DMSO, 10% Kolliphor HS 15 and 80% physiological saline. For intravenous administration, the animals were administered with a dose of 1 mg/kg, and 0.3 mL of vein blood was collected at the time points of 0.083, 0.25, 0.5, 1.0, 2.0, 4.0, 6.0, 8.0 and 24 h after drug administration (the time point of drug administration was set as 0 h), then each blood sample was processed to separate plasma by centrifugation at 3000 rpm or 4000 rpm for 10 minutes, and plasma was collected and stored at −20° C. or −70° C. until LC/MS/MS analysis described above. For gavage administration, the animals were administered with a dose of 2.5 mg/kg or 5 mg/kg, and 0.3 mL of vein blood was collected at the time points of 0.25, 0.5, 1.0, 2.0, 4.0, 6.0, 8.0 and 24 h after drug administration (the time point of drug administration was set as 0 h), then each blood sample was processed to separate plasma by centrifugation at 3000 rpm or 4000 rpm for 10 minutes, and plasma was collected and stored at −20° C. or −70° C. until LC/MS/MS analysis described above.
The above plasma was analyzed by the LC/MS/MS system.

[2] = Stability in human liver microsomes; assay type: in vitro ADME; details: for half-life at 1 μM / CLint scaled at 1 μM: liver microsomes, human liver microsome 0.5 mg/mL, 1 μM compound, 37° C., pH 7.4; for CLint scaled at 1 μM: read-out: Intrinsic clearance
Protocol: (§1) Example C: Evaluation of the Stability of the Compounds of the Invention in Rat and Human Liver Microsomes
(§2) The compound of the invention and rat liver microsome or human liver microsome were placed in 0.1 M potassium phosphate buffer (containing 1.0 mM EDTA, pH=7.4) at 37° C., and the mixture was incubated at 37° C. The concentrations of the compound at different incubation time points were determined, and the half-life of the compound was calculated by curve plotted based on the relative contents of the compound and the corresponding incubation times by using GraphPad Prism 5.01. Then the intrinsic clearance was calculated.
(§3) The peak area ratio of sample to internal standard was analyzed by the LC/MS/MS system. The content of the compound at 0 min was 100%, and the relative contents of the compound at different time points were calculated. The half-life of the compound was calculated by curve plotted based on the relative contents of the compound and the corresponding incubation times, and the intrinsic clearance was calculated.

[3] = Stability in rat liver microsomes; assay type: in vitro ADME; details: rat liver microsome 0.5 mg/mL, 1 μM compound, 37° C.; for half-life at 1 μM: pH 7.4; for CLint scaled at 1 μM: pH 7.4, read-out: Intrinsic clearance
Protocol: as §1, §2, §3

[4] = intravenous drug delivery group, dose 1 mg/kg
[5] = po, gavage group, dose 2.5 mg/kg

human 5-HT6 receptor, sequence (P50406 whole entry): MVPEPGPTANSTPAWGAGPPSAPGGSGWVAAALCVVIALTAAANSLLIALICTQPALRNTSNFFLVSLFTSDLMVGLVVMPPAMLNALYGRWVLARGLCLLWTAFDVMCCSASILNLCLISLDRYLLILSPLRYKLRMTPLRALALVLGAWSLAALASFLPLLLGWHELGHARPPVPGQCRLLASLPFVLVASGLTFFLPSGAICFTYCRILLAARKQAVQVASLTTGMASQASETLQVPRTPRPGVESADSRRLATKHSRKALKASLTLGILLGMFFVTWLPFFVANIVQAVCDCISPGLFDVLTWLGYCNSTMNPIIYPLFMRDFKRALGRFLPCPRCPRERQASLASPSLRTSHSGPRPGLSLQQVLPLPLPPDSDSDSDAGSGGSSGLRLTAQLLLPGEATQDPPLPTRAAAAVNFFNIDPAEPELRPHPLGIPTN

Row | Ki (human 5-HT6 receptor) [nM] | AUC(0-inf) [1, 4] [ng·h/mL] | AUC(0-t) [1, 4] [ng·h/mL] | Cmax [1, 4] [ng/mL] | MRT inf [1, 4] [h] | Tmax [1, 4] [h] | clearance [1, 4] [mL/min/kg] | half-life [1, 4] [h] | Vd [1, 4] [L/kg] | AUC(0-inf) [1, 5] [ng·h/mL] | AUC(0-t) [1, 5] [ng·h/mL] | Cmax [1, 5] [ng/mL] | MRT inf [1, 5] [h] | Tmax [1, 5] [h] | half-life [1, 5] [h] | F ([1]; gavage group, dose 2.5 mg/kg) [%] | half-life at 1 μM [2] [h] | CLint scaled at 1 μM [2] [mL/min/kg] | half-life at 1 μM [3] [h] | CLint scaled at 1 μM [3] [mL/min/kg] | Structure (SMILES) | other results
1 | 0.46 | 926 | 781 | 106 | 8.73 | 0.194 | 18.5 | 6.43 | 9.86 | 3160 | 2400 | 173 | 16.8 | 3.33 | 11.4 | 103.67 | 2.22 | 13.1 | 0.583 | 71 | O=S(=O)(c1ccccc1F)n1cc(C(F)F)c2c(N3CCNCC3)cccc21 [Example 2, 3-(difluoromethyl)-1-((2-fluorophenyl)sulfonyl)-4-(piperazin-1-yl)-1H-indole] | 
2 | 0.43 | 2340 | 2660 | 293 | 8.77 | 8.06 | 7.13 | 6.26 | 3.77 | 17600 | 9250 | 975 | 17.9 | 4.67 | 14.7 | 139 | 2.2 | 13.2 | 0.501 | 82.6 | O=S(=O)(c1ccccc1Cl)n1cc(C(F)F)c2c(N3CCNCC3)cccc21 [Example 3, 1-((2-chlorophenyl)sulfonyl)-3-(difluoromethyl)-4-(piperazin-1-yl)-1H-indole] | 
3 | 0.52 | 1190 | 1100 | 125 | 8.77 | 0.389 | 14 | 6.49 | 7.36 |  |  |  |  |  |  |  | 3.62 | 7.99 | 0.725 | 57.1 | O=S(=O)(c1cccc(F)c1)n1cc(C(F)F)c2c(N3CCNCC3)cccc21 [Example 5, 3-(difluoromethyl)-1-((3-fluorophenyl)sulfonyl)-4-(piperazin-1-yl)-1H-indole] | AUC(0-inf) ([1]; po, gavage group, dose 5 mg/kg): 8350 ng·h/mL; AUC(0-t) ([1]; po, gavage group, dose 5 mg/kg): 5680 ng·h/mL; Cmax ([1]; po, gavage group, dose 5 mg/kg): 347 ng/mL; MRT inf ([1]; po, gavage group, dose 5 mg/kg): 15 h; Tmax ([1]; po, gavage group, dose 5 mg/kg): 6 h; half-life ([1]; po, gavage group, dose 5 mg/kg): 10.1 h; F ([1]; gavage group, dose 5 mg/kg): 103.21%; degradation in human liver microsomes in vitro ([2]; in 60 minutes): almost had no degradation
